Assay results taken from patent US9113629B2, “4-amino-6-(4-substituted-phenyl)-picolinates and 6-amino-2-(4-substituted-phenyl)-pyrimidine-4-carboxylates and their use as herbicides” (DOW AGROSCIENCES LLC, priority 2013, dated 2015).
Where two headings read alike, the source gives them in different places.

Legend:
[1] = tested on: VERPE: bird's-eye speedwell (veronica persica); assay: Post-emergent Test III, herbicidal activity in wheat and barley; format: in vivo; details: for pest or weed control at 35 g/ha: 35 g ai/ha; for pest or weed control at 70 g/ha: 70 g ai/ha; for GR50 VERPE / GR80 VERPE: probit analysis
Procedure, shortened: (§1)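 Plants at the second to third true-leaf stage, grown in a greenhouse at about 18/17 °C with a 14 h photoperiod, were sprayed post-emergence at 187 L/ha with the high rate and ½× to 1/16× serial dilutions in an acetone/DMSO/crop-oil/surfactant carrier. Injury was rated visually at 21 d on a 0–100% scale, and GR20–GR90 were derived by probit analysis.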

LAMSS = assay: as above; format: in vivo; details: for pest or weed control at 35 g/ha: 35 g ai/ha; for pest or weed control at 70 g/ha: 70 g ai/ha; for GR50 LAMSS / GR80 LAMSS: probit analysis, 21 days after application; for GR50 LAMSS: dose for growth reduction of 50 percent; for GR80 LAMSS: dose for growth reduction of 80 percent
Procedure, shortened: as §1

LOLSS = assay: Pre-emergent Test III, preemergent activity in wheat and barley; format: in vivo, Lolium multiflorum, Lolium rigidum
Protocol: Pre-emergent Test III. Seeds of test species were planted into square plastic pots (10 cm wide) containing sandy loam soil. After planting, all pots were sub-irrigated 16 h prior to compound application. A weighed amount, determined by the highest rate to be tested, of each test compound was placed in a 25 mL glass vial and was dissolved in 4 mL of a 97:3 v/v mixture of acetone and DMSO to obtain concentrated stock solutions. […] The concentrated stock solutions obtained were diluted with 20 mL of an aqueous mixture containing water and 0.02% w/v (weight/volume) of Triton X-155 to obtain spray solutions containing the highest application rates. Additional application rates were obtained by serial dilution of 12 mL of the high rate solution into a solution containing 2 mL of 97:3 v/v mixture of acetone and DMSO and 10 mL of an aqueous mixture containing water and 0.02% w/v (weight/volume) of Triton X-155 to obtain 1⁄2×, 1⁄4×, 1⁄8× and 1/16× rates of the high rate. Compound requirements are based upon a 12 mL application volume at a rate of 187 liters per hectare (L/ha). Formulated compounds were applied to the soil surface with an overhead Mandel track sprayer equipped with […] nozzles calibrated to deliver 187 L/ha over an application area of 0.503 square meters. Control pots were sprayed in the same manner with the solvent blank. The treated pots and control pots were placed in a greenhouse as described above and watered through surface irrigation. After 21 d, the condition of the test pots as compared with that of the untreated pots was determined visually and scored on a scale of 0 to 100 percent where 0 corresponds to no herbicidal effect and 100 corresponds to plant death or lack of emergence from the soil. By applying the well-accepted probit analysis as described by J. Berkson in Journal of the American Statistical Society, 48, 565 (1953) and by D. Finney in “Probit Analysis” Cambridge University Press (1952), the above data can be used to calculate GR20, GR50, GR80 and GR90 values, which are defined as growth reduction factors that correspond to the effective dose of herbicide required to kill or control 20 percent, 50 percent, 80 percent or 90 percent, respectively, of a target plant.

[2] = Veronica persica, post-emergence, 504 h, read-out: Visual Growth Reduction (%) 21 Days After Application VERPE
[3] = post-emergence, 504 h, read-out: Visual Growth Reduction (%) 21 Days After Application LAMSS
[4] = Veronica persica, post-emergence, 504 h, 21 days after application, read-out: Visual Gorowth Reduction (%) 21 days After Application VERPE

| SMILES | pest or weed control at 35 g/ha [1, 2] | pest or weed control at 70 g/ha [1, 2] | pest or weed control at 140 g/ha ([1]; Veronica persica, post-emergence, 504 h, 140 g ai/ha, read-out: Visual Growth Reduction (%) 21 Days After Application VERPE) | GR50 VERPE ([1]; dose for growth reduction of 50 percent, 21 days after application) | GR80 VERPE ([1]; dose for growth reduction of 80 percent, 21 days after application) | pest or weed control at 35 g/ha (LAMSS; [3]) | pest or weed control at 70 g/ha (LAMSS; [3]) | pest or weed control at 140 g/ha (LAMSS; post-emergence, 504 h, 140 g ai/ha, read-out: Visual Growth Reduction (%) 21 Days After Application LAMSS) | GR50 LAMSS (LAMSS) | GR80 LAMSS (LAMSS) | pest or weed control at 35 g/ha [1, 4] | pest or weed control at 70 g/ha [1, 4] | GR50 VERPE ([1]; dose for 50 percent growth reduction, 21 days after application) | GR80 VERPE ([1]; dose for 80 percent growth reduction, 21 days after application) | Visual Growth Reduction (%) 21 Days After Application, LOLSS (LOLSS; 35 g ai/ha) | Visual Growth Reduction (%) 21 Days After Application, LOLSS (LOLSS; 70 g ai/ha) | GR50 LOLSS (LOLSS; 21 days after application, dose to kill or control 50%, probit analysis) | GR80 LOLSS (LOLSS; 21 days after application, dose to kill or control 80%, probit analysis) |
| --- | --- | --- | --- | --- | --- | --- | --- | --- | --- | --- | --- | --- | --- | --- | --- | --- | --- | --- |
| COC(=O)c1nc(-c2ccc(Cl)c(F)c2)c(F)c(N)c1Cl [Compound 216] | 45 to 59% | 60 to 74% | 75 to 84% | 32 g ai/ha | >140 g ai/ha | 95 to 100% | 95 to 100% | 95 to 100% | 1 g ai/ha | 1 g ai/ha |  |  |  |  |  |  |  |  |
| COC(=O)c1nc(-c2ccc(Br)c(F)c2)c(F)c(N)c1Cl [Compound 49] |  |  |  |  |  |  |  |  |  |  | 45 to 59% | 60 to 74% | 37 g ai/ha | >140 g ai/ha | G (0-29) | G (0-29) | >70 g ai/ha | >70 g ai/ha |
| Nc1c(F)c(-c2ccc(C(F)(F)F)c(F)c2F)nc(C(=O)O)c1Cl [Compound 167] |  |  |  |  |  | 95 to 100% | 95 to 100% |  | 1 g ai/ha | 1 g ai/ha |  |  |  |  |  |  |  |  |
